Assay results taken from US7846910B2, “Pharmaceutical composition, composition for screening therapeutics preventing and treating beta amyloid accumulation in brain comprising GCP II (glutamate carboxypeptidase II) as an active ingredient and method for screening using the same” (Korea Center for Disease Control and Prevention, priority 2005, dated 2010).

Legend:
[1] = Enzyme activity (Km) of purified rGCP-II, [3H] glutamate release; type: biochemical; details: 0.002-2 μM substrate, 37° C.
Experimental: The enzyme activity of rGCP-II was saturated from 1.0 μM of N-acetyl-L-aspartyl-L-[3,4-^3H] and as a result, the Km value of rGCP-II was determined to be 0.5 μM.

[2] = system: endogenous Aβ42; experiment: Degradation of endogenous Aβ from swAPP stable HEK293 cells by rGCP-II (ELISA); type: biochemical, human; details: #2 colony of swAPP stable cells, 0, 0.5, 2.5 and 10[…]/μL of rGCP-II
Excerpt: To investigate whether human GCP-II can actually degrade endogenous Aβ a cell line stably expressing ^swAPP (Swedish mutant APP) gene involved in the over-production of Aβ was constructed. For this construction, ^swAPP was introduced into HEK293 cells, followed by selection with G418. The recovered medium was reacted with rGCP-II protein and then Aβ remaining unreacted in the medium was quantified by ELISA (FIG. 8).
The concentration of Aβ42 and the expression level of APP were used as standards for the selection of ^swAPP stable cell colonies. […] As a result, the level of endogenous Aβ42 was decreased. From the above result, it was confirmed that rGCP-II is able to degrade physiologically generated (endogenous) Aβ alike (FIG. 8B).

[3] = system: Aβ monomer and oligomer (multimer); experiment: Degradation of Aβ monomer and multimer by rGCP-II (Western blotting); type: biochemical; details: Aβ matured for 7 days, reacted 20 hours, increasing GCP-II concentration
Experimental: Western blotting was performed using anti-Aβ antibody (6E10) more than 5 times (FIG. 9A) and the results were quantified by an image program (Image J program, NIH, USA) (FIG. 9B).

[4] = system: soluble Aβ40 and insoluble Aβ40; experiment: Degradation of soluble and insoluble Aβ from cerebral cortex by rGCP-II; type: biochemical
Experimental: The cerebral cortex was homogenized in 50 mM Tris-HCl (TBS) containing protease inhibitor cocktail (pH 7.6), followed by centrifugation at 4° C. with 100,000 g for 40 minutes. The supernatant was defined as a soluble fragment. The pellet was sonicated in 6 M guanidine-HCl solution containing protease inhibitor cocktail, which was defined as an insoluble fragment. The concentrations of each soluble Aβ and insoluble Aβ were measured.
The soluble Aβ or insoluble Aβ was co-cultured with rGCP-II.

[5] = system: synthetic Aβ40 or Aβ42; experiment: Aβ degradation in HEK293 cells over-expressing GCP-II (ELISA of remaining Aβ in medium); type: cell-based, human
Experimental: To investigate the Aβ degradation by GCP-II, synthetic Aβ40 (FIG. 1A) or Aβ42 (FIG. 1B) was added to the cell culture solution containing HEK293 cells over-expressing GCP-II and HEK293 cells over-expressing NEP and IDE which are known as Aβ degrading enzymes. After reaction, the level of Aβ in the medium was measured by ELISA.
To measure the level of Aβ degradation by GCP-II, 2 ng/uL of synthetic Aβ40 or Aβ42 (Biosource international INC.) was added to HEK293 cell culture medium. Twenty hours later, the remaining Aβ in the medium was quantified by ELISA kit (Biosource international INC.).
HEK293 cells (human embryonic kidney cells) over-expressing GCP-II were temporarily transfected with GCP-II expression vector ‘pHA-GCPII’ or ‘pmyc-GCPII’ prepared in the above Example <1-1>, by using a transfection reagent (Lipofectamine Plus™ Reagent, Invitrogen, USA). The HEK293 cells with the temporary insertion of GCP-II were cultured in DMEM (Dulbecco's modified Eagle's medium) supplemented with 10% FBS (fetal bovine serum), 100 IU/ml of penicillin and 100[…]/ml of streptomycin. Cell lysate was obtained from the HEK293 cells by using RIPA buffer containing a protease inhibitor (aprotinin, leupeptin or phenylmethyl sulfonyl fluoride), and GCP-II protein was separated with 8% SDS-PAGE to examine the expression of GCP-II.
HEK293 cells transfected with NEP and IDE plasmids were used as a positive control and the cells transfected with mock vector were used as a negative control. The expressions of human GCP-II and NEP in the transfected HEK293 cells were investigated by Western blot analysis using anti-GCP-II antibody (MAB544B, Maine Biotechnology) or anti-NEP antibody (L-CD10-270, Novocastra) respectively (FIG. 1C).

[6] = system: Aβ40; experiment: Aβ degradation in primary cortical cells over-expressing GCP-II by lenti-virus (ELISA); type: cell-based, rat; details: infected by 10, 20 and 50 MOI for three days, Aβ40 added for 20 hours
Excerpt: To investigate whether Aβ degradation effect of GCP-II was still observed in cortical cells or not, GCP-II was over-expressed in primary cortical cells by using lenti-virus, and then the level of Aβ degradation was investigated.
To investigate whether the expression of GCP-II can degrade Aβ in cortical cells, GCP-II was over-expressed in the primary cortical cells by using lenti-virus, followed by investigation of Aβ degradation (FIG. 2). The primary cortical cells were separated and cultured from E16 rats (Sprague-Dawley rats). To prevent non-neuronal cells, which took less than 10% in the culture cells, from spreading, the cells were transferred and further cultured in a 24 well plate (1×10^5 cells/well) containing 5-fluoro-2-deoxyuridine from the 3-6 days after the first culture. To prepare lenti-virus expressing GCP-II, GCP-II was inserted into pLentiH1.2 vector (named ‘pLentiH1.2-GCPII’, which was then introduced into 293T cells along with pLentiH1.2-GCP-II and packaging construct and envelope construct. Forty eight hours later, the concentration of the virus released in the medium was measured.
The primary cortical cells were infected with Lenti-GCP-II for three days, to which Aβ40 was added for 20 hours. Then, the level of Aβ remaining in the medium was measured by ELISA as explained in Example 1. […]

[7] = system: ACTH (adrenocorticotropic hormone); experiment: GCP-II substrate specificity, MALDI-TOF molecular weight analysis; type: biochemical; details: 37° C. for 15 hours
Experimental: (§1) To investigate whether GCP-II degrades Aβ specifically, GCP-II was reacted with amylin and ACTH (adrenocorticotropic hormone) or insulin β-chain at 37° C. for 15 hours, followed by measuring the molecular weight of each sample with a molecular weight analyzer (FIG. 7).

[8] = system: amylin; experiment: as above; type: biochemical; details: 37° C. for 15 hours
Experimental: as §1

[9] = system: insulin β-chain; experiment: as above; type: biochemical; details: 37° C. for 15 hours
Experimental: as §1

[10] = system: Aβ40 and Aβ42; experiment: Aβ yield in cerebral cortex of mice treated with GCP-II inhibitor (ELISA); type: in vivo; details: transgenic mouse (APP Swedish/presenilin delta 9), 10 mg/kg into visceral cavity twice a week, 30 days, PBS control
Experimental: (§2) To conform whether GCP-II can actually degrade over-expressing Aβ in vivo, the present inventors investigated Aβ degradation capacity by GCP-II inhibitor in a transgenic mouse over-expressing these Aβ. Concretely, after prepared genetically Aβover-expressing dementia model mouse (APP Swdish/presenilin delta 9 deltion, 12 weeks, The Hackson Laboratory, USA), injected into visceral cavity twice in a week, dosage of 10 mg/kg, 30 days. At this time, PBS used as a control. After finally injected GCP-II inhibitor, cerebral cortex, hippocampus and cerebellum in mouse brain was dissected and measured their weight respectively using microblance. And then, the above tissues were incubated in 6 M guanidine-hydrochrolide solution, room temperature, 4 hours and obtained supernatant by centrifugation after added iced PBS at 1/10 ratio. […] Then treated HRP (horseradish peroxidase) tagging secondly actibody, the above reactant was measured absorbance at 450 nm wavelength after treated stained using TMB (tetramethylbensidine). To conform whether GCP-II inhibitor was treated correctly, a part of the above mouse brain tissue were dissected and detected GCP-II activaty. […] In this manner, isolated sample were measured GCP-II activity using isotope meter.

[11] = molecular target: T1, GCP-II (Mus musculus, UniProt O35409); experiment: GCP-II activity in brain tissue of mice treated with GCP-II inhibitor (3H-NAAG); type: in vivo; details: 10 mg/kg twice a week, 30 days
T1 construct: the cell membrane layer existed GCP-II was isolated from the mouse brain tissue; from tissue; host or cells: Brain membrane fraction of wild-type and APP Swedish/presenilin delta-9 transgenic mice
T1 sequence (O35409 whole entry): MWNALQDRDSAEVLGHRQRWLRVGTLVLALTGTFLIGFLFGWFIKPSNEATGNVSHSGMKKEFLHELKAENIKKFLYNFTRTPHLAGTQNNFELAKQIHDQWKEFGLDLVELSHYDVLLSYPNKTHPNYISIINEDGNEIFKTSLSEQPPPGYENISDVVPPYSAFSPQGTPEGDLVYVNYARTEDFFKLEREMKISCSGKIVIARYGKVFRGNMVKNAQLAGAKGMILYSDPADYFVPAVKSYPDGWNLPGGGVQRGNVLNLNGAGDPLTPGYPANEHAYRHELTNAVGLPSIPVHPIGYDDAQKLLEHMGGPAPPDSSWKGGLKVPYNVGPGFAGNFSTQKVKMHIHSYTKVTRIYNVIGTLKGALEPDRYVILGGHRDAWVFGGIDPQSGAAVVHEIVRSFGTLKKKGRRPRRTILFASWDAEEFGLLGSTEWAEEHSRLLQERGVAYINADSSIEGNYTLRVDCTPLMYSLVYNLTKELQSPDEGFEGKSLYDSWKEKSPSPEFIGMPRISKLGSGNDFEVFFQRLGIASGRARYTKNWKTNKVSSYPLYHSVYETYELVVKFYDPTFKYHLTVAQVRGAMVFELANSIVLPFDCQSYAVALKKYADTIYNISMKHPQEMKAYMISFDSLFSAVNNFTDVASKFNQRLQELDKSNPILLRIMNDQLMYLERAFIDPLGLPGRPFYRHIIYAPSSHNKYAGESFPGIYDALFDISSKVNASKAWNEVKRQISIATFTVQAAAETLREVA
Experimental: as §2

[12] = GCP-II over-expressing HEK293 cells, compared with mock vector

Compound: rGCP-II: recombinant GCP-II protein expressed in insect cells (Sf21) with baculovirus vector and purified on a Ni-chelating column
- Km [1]: 0.5 µM
- level of endogenous Aβ42 [2]: decreased
- degradation of Aβ oligomer versus monomer [3]: reduced faster than Aβ monomer
- reduction of insoluble Aβ40 ([4]; insoluble fragment of cerebral cortex co-cultured with rGCP-II): 35%
- reduction of soluble Aβ40 ([4]; soluble fragment of cerebral cortex co-cultured with rGCP-II): 20%

Compound: GCP-II: transmembrane metalloproteinase glutamate carboxypeptidase II (SEQ. ID. NO: 2), over-expressed in cells from pHA-GCPII or pMyc-GCPII
- decrease of Aβ40 level in cell culture medium [5, 12]: 30%
- decrease of Aβ42 level in cell culture medium [5, 12]: 30%
- level of Aβ remaining in the culture medium ([5]; HEK293 cells expressing GCP-II, 20 hours after addition of Aβ, compared with cells transfected with mock vector): 60±5%
- Aβ reduction in primary cortical cells [6]: more than 90%
- degradation of ACTH [7]: not degraded
- degradation of amylin (MALDI-TOF peaks) [8]: two peaks at 1500 and 2000
- degradation of insulin β-chain [9]: not degraded

Compound: O=C(O)CCC(CP(=O)(O)O)C(=O)O (stereo not shown) [2-PMPA]
- increase of yield of Aβ42 in cerebral cortex versus control [10]: about 30%
- yield of Aβ40 in cerebral cortex versus control [10]: no significantly difference
- reduction of GCP-II activity in brain ([11]; transgenic mouse): about 30%
- reduction of GCP-II activity in brain ([11]; wild type mouse): about 50%
